Marks after values point to notes of the source that are not given here.
Legend:
[1] = tested on: glucose-loaded SD rats; experiment: OGTT (Oral Glucose Tolerance Test), Test Example 2; assay type: in vivo, rat; details: male SD rats; 1, 3, or 10 mg/kg oral, 16 hours before glucose load; compared to vehicle, FIG. 1
Procedure: Vehicle (0.5% methylcellulose solution) or Compound 1 (1, 3, or 10 mg/kg) suspended in a 0.5% methylcellulose solution was orally administered in 5 mL/kg to an about 4-hour-fasted male SD rat (8-week old, Nihon Charles River K.K., 6 cases for each group).
Statistical analyses were based on Steel's multiple test. The significance level was two-sided 5%.

[2] = tested on: glucose-loaded SD rats; experiment: OGTT (Oral Glucose Tolerance Test), Test Example 3; assay type: in vivo, rat; details: male SD rats; 3 mg/kg oral, 16 hours before glucose load; compared to vehicle, FIG. 2
Procedure: Vehicle (0.5% methylcellulose solution), or Compound 1, Compound A, or Compound B (3 mg/kg each) suspended in a 0.5% methylcellulose solution was orally administered in 5 mL/kg to an about 4-hour-fasted male SD rat (8-week old, Nihon Charles River K.K., 5 cases for each group).
Statistical analyses were based on Dunnett's multiple group test. The significance level was two-sided 5%.

[3] = tested on: Salmonella typhimurium TA98; experiment: Ames test (reverse mutation test), TA98; details: TA98
Procedure: (§1) Metabolites 1, 3, and 5 and Metabolites C to H were each tested herein. The purpose of this test is to evaluate the potential of each metabolite to induce reverse mutations in the standard strains of Salmonella typhimurium (TA98, TA1537, TA100, and TA1535) and Escherichia coli (WP2uvrA), in either the presence or absence of a rat liver metabolic activation system (S9 mix).
(§2) The solvent used herein was dimethyl sulfoxide (DMSO, 100 μL/plate).
(§3) The test was performed by the pre-incubation method with or without S9 mix. When the test was performed without S9 mix, sodium phosphate buffer solution (pH 7.4) was added.
(§4) 0.5 mL of S9 mix or 0.5 mL of 0.1 mol/L sodium phosphate buffer solution (pH 7.4), and 0.1 mL of the bacterial culture solution were added to a test tube containing 0.1 mL of the negative control formulation (DMSO alone), the metabolite, or the positive control formulation. The mixtures were pre-incubated at 37° C. for 20 minutes while shaking. After the pre-incubation period, 2 mL of top agar were added and the mixtures were vortex-mixed and seeded onto plates. Two plates per treatment were used. Each plate was incubated at 37±1° C. for 48 hours or more and the revertant colonies were counted. The mean number of revertant colonies for each treatment plate was then calculated. […] Evaluation was based on mean values with no statistical comparisons being used.

[4] = tested on: Salmonella typhimurium TA1537; experiment: Ames test (reverse mutation test), TA1537; details: TA1537
Procedure: as §1, §2, §3, §4

[5] = tested on: Salmonella typhimurium TA100; experiment: Ames test (reverse mutation test), TA100; details: TA100
Procedure: as §1, §2, §3, §4

[6] = tested on: Salmonella typhimurium TA1535; experiment: Ames test (reverse mutation test), TA1535
Procedure: as §1, §2, §3, §4

[7] = tested on: Escherichia coli WP2uvrA; experiment: Ames test (reverse mutation test), WP2uvrA; assay type: cell-based; details: WP2uvrA

SMILES: C[C@H]1C(=O)NC[C@@H]1C(=O)Nc1cc(-c2cc(F)cc(OC(C)(C)C)c2)n(C(F)(F)F)n1 [Example 1, (3R,4R)—N-(5-(3-(tert-butoxy)-5-fluorophenyl)-1-(trifluoromethyl)-1H-pyrazol-3-yl)-4-methyl-5-oxopyrrolidine-3-carboxamide]
- blood glucose level after the glucose load (Δ AUC 0-120 minutes, % of Vehicle) [1]: significantly reduced
- blood glucose level after the glucose load (Δ AUC 0-120 minutes, % of Vehicle) [2]: significantly reduced

SMILES: Nc1cc(-c2cc(F)cc(OC(F)(F)F)c2)n(-c2cncc(F)c2)n1 [Metabolite 3]
- Number of revertant colonies ([3]; S9 mix +, 6.9 μg/plate): 35
- Number of revertant colonies ([3]; S9 mix +, 21 μg/plate): 37
- Number of revertant colonies ([3]; S9 mix +, 62 μg/plate): 35
- Number of revertant colonies ([3]; S9 mix +, 185 μg/plate): 36
- Number of revertant colonies ([3]; S9 mix +, 556 μg/plate): 22*
- Number of revertant colonies ([3]; S9 mix +, 1667 μg/plate): 20*†
- Number of revertant colonies ([3]; S9 mix +, 5000 μg/plate): 16*†
- Number of revertant colonies ([3]; S9 mix −, 6.9 μg/plate): 30
- Number of revertant colonies ([3]; S9 mix −, 21 μg/plate): 30
- Number of revertant colonies ([3]; S9 mix −, 62 μg/plate): 28
- Number of revertant colonies ([3]; S9 mix −, 185 μg/plate): 28
- Number of revertant colonies ([3]; S9 mix −, 556 μg/plate): 12*
- Number of revertant colonies ([3]; S9 mix −, 1667 μg/plate): 9*†
- Number of revertant colonies ([3]; S9 mix −, 5000 μg/plate): 7*†
- Number of revertant colonies ([4]; S9 mix +, 6.9 μg/plate): 12
- Number of revertant colonies ([4]; S9 mix +, 21 μg/plate): 13
- Number of revertant colonies ([4]; S9 mix +, 62 μg/plate): 12
- Number of revertant colonies ([4]; S9 mix +, 185 μg/plate): 12
- Number of revertant colonies ([4]; S9 mix +, 556 μg/plate): 8*
- Number of revertant colonies ([4]; S9 mix +, 1667 μg/plate): 0*†
- Number of revertant colonies ([4]; S9 mix +, 5000 μg/plate): 1*†
- Number of revertant colonies ([4]; S9 mix −, 6.9 μg/plate): 9
- Number of revertant colonies ([4]; S9 mix −, 21 μg/plate): 8
- Number of revertant colonies ([4]; S9 mix −, 62 μg/plate): 8
- Number of revertant colonies ([4]; S9 mix −, 185 μg/plate): 8
- Number of revertant colonies ([4]; S9 mix −, 556 μg/plate): 3*
- Number of revertant colonies ([4]; S9 mix −, 1667 μg/plate): 3*†
- Number of revertant colonies ([4]; S9 mix −, 5000 μg/plate): 2*†
- Number of revertant colonies ([5]; S9 mix +, 6.9 μg/plate): 109
- Number of revertant colonies ([5]; S9 mix +, 21 μg/plate): 119
- Number of revertant colonies ([5]; S9 mix +, 62 μg/plate): 118
- Number of revertant colonies ([5]; S9 mix +, 185 μg/plate): 125
- Number of revertant colonies ([5]; S9 mix +, 556 μg/plate): 115*†
- Number of revertant colonies ([5]; S9 mix +, 1667 μg/plate): 97*†
- Number of revertant colonies ([5]; S9 mix +, 5000 μg/plate): 92*†
- Number of revertant colonies ([5]; S9 mix −, 6.9 μg/plate): 89
- Number of revertant colonies ([5]; S9 mix −, 21 μg/plate): 90
- Number of revertant colonies ([5]; S9 mix −, 62 μg/plate): 87
- Number of revertant colonies ([5]; S9 mix −, 185 μg/plate): 86
- Number of revertant colonies ([5]; S9 mix −, 556 μg/plate): 6*
- Number of revertant colonies ([5]; S9 mix −, 1667 μg/plate): 5*†
- Number of revertant colonies ([5]; S9 mix −, 5000 μg/plate): 5*†
- Number of revertant colonies ([6]; S9 mix +, 6.9 μg/plate): 8
- Number of revertant colonies ([6]; S9 mix +, 21 μg/plate): 9
- Number of revertant colonies ([6]; S9 mix +, 62 μg/plate): 11
- Number of revertant colonies ([6]; S9 mix +, 185 μg/plate): 9
- Number of revertant colonies ([6]; S9 mix +, 556 μg/plate): 4*
- Number of revertant colonies ([6]; S9 mix +, 1667 μg/plate): 3*†
- Number of revertant colonies ([6]; S9 mix +, 5000 μg/plate): 1*†
- Number of revertant colonies ([6]; S9 mix −, 6.9 μg/plate): 9
- Number of revertant colonies ([6]; S9 mix −, 21 μg/plate): 11
- Number of revertant colonies ([6]; S9 mix −, 62 μg/plate): 10
- Number of revertant colonies ([6]; S9 mix −, 185 μg/plate): 8
- Number of revertant colonies ([6]; S9 mix −, 556 μg/plate): 8*
- Number of revertant colonies ([6]; S9 mix −, 1667 μg/plate): 0*†
- Number of revertant colonies ([6]; S9 mix −, 5000 μg/plate): 0*†
- Number of revertant colonies ([7]; S9 mix +, 6.9 μg/plate): 19
- Number of revertant colonies ([7]; S9 mix +, 21 μg/plate): 19
- Number of revertant colonies ([7]; S9 mix +, 62 μg/plate): 19
- Number of revertant colonies ([7]; S9 mix +, 185 μg/plate): 19
- Number of revertant colonies ([7]; S9 mix +, 556 μg/plate): 17*
- Number of revertant colonies ([7]; S9 mix +, 1667 μg/plate): 14*†
- Number of revertant colonies ([7]; S9 mix +, 5000 μg/plate): 9*†
- Number of revertant colonies ([7]; S9 mix −, 6.9 μg/plate): 21
- Number of revertant colonies ([7]; S9 mix −, 21 μg/plate): 16
- Number of revertant colonies ([7]; S9 mix −, 62 μg/plate): 23
- Number of revertant colonies ([7]; S9 mix −, 185 μg/plate): 20
- Number of revertant colonies ([7]; S9 mix −, 556 μg/plate): 16*
- Number of revertant colonies ([7]; S9 mix −, 1667 μg/plate): 13*†
- Number of revertant colonies ([7]; S9 mix −, 5000 μg/plate): 8*†

— patent US20230119894A1, “THERAPEUTIC OR PROPHYLACTIC METHOD FOR DIABETES USING COMBINATION MEDICINE” (Japan Tobacco Inc., priority 2019, published 2023)
